Results as given in PubChem BioAssay (NCI).
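Cultured in 96-well plates, cells were exposed to test compound for 48 hours across five concentrations. TGI denotes the concentration required for complete inhibition of growth.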

Assays:
Test in all cases: DTP human tumour cell line panel, 48 h
[1] = system: U251 CNS
[2] = system: HOP-92 NSCLC
[3] = system: TK-10 renal
[4] = system: NCI-H23 lung
[5] = system: DMS 114 small cell lung
[6] = system: SK-MEL-2 melanoma
[7] = system: XF 498 CNS
[8] = system: MALME-3M melanoma
[9] = system: HT29 colon
[10] = system: MOLT-4 leukemia
[11] = system: M19-MEL melanoma
[12] = system: A498 renal
[13] = system: SK-OV-3 ovarian
[14] = system: HOP-62 NSCLC
[15] = system: KM20L2 colon
[16] = system: HCT-15 colon
[17] = system: SF-295 CNS
[18] = system: UO-31 renal
[19] = system: DMS 273 small cell lung
[20] = system: UACC-62 melanoma
[21] = system: UACC-257 melanoma
[22] = system: COLO 205 colon
[23] = system: SN12C renal
[24] = system: OVCAR-3 ovarian
[25] = system: NCI-H226 lung
[26] = system: ACHN renal
[27] = system: HL-60(TB) leukemia
[28] = system: SK-MEL-28 melanoma
[29] = system: RXF 393 renal
[30] = system: SNB-75 CNS
[31] = system: HOP-18 NSCLC
[32] = system: IGROV1 ovarian
[33] = system: K-562 leukemia
[34] = system: EKVX NSCLC
[35] = system: SW-620 colon
[36] = system: NCI-H460 lung
[37] = system: SF-539 CNS
[38] = system: HCT-116 colon
[39] = system: CCRF-CEM leukemia
[40] = system: SNB-78 CNS
[41] = system: HCC-2998 colon
[42] = system: DLD-1 colon
[43] = system: SF-268 CNS
[44] = system: KM12 colon
[45] = system: LOX IMVI melanoma
[46] = system: OVCAR-8 ovarian
[47] = system: SNB-19 CNS
[48] = system: CAKI-1 renal
[49] = system: SK-MEL-5 melanoma
[50] = system: OVCAR-5 ovarian
[51] = system: M14 melanoma
[52] = system: LXFL 529 NSCLC
[53] = system: A549 NSCLC
[54] = system: OVCAR-4 ovarian
[55] = system: 786-0 renal
[56] = system: NCI-H522 lung
[57] = system: SR leukemia
[58] = system: RPMI-8226 leukemia

CC1(O)C(C)(O)C(C)(O)C1(C)O (stereo unspecified)
TGI [1]: > 100 µM | TGI [2]: > 100 µM | TGI [3]: > 100 µM | TGI [4]: > 100 µM | TGI [5]: > 100 µM | TGI [6]: > 100 µM | TGI [7]: > 100 µM | TGI [8]: > 100 µM | TGI [9]: > 100 µM | TGI [10]: > 100 µM | TGI [11]: > 100 µM | TGI [12]: > 100 µM | TGI [13]: > 100 µM | TGI [14]: > 100 µM | TGI [15]: > 100 µM | TGI [16]: > 100 µM | TGI [17]: > 100 µM | TGI [18]: > 100 µM | TGI [19]: > 100 µM | TGI [20]: > 100 µM | TGI [21]: > 100 µM | TGI [22]: > 100 µM | TGI [23]: > 100 µM | TGI [24]: > 100 µM | TGI [25]: > 100 µM | TGI [26]: > 100 µM | TGI [27]: > 100 µM | TGI [28]: > 100 µM | TGI [29]: > 100 µM | TGI [30]: > 100 µM | TGI [31]: > 100 µM | TGI [32]: > 100 µM | TGI [33]: > 100 µM | TGI [34]: > 100 µM | TGI [35]: > 100 µM | TGI [36]: > 100 µM | TGI [37]: > 100 µM | TGI [38]: > 100 µM | TGI [39]: > 100 µM | TGI [40]: > 100 µM | TGI [41]: > 100 µM | TGI [42]: > 100 µM | TGI [43]: > 100 µM | TGI [44]: > 100 µM | TGI [45]: > 100 µM | TGI [46]: > 100 µM | TGI [47]: > 100 µM | TGI [48]: > 100 µM | TGI [49]: > 100 µM | TGI [50]: > 100 µM | TGI [51]: > 100 µM | TGI [52]: > 100 µM | TGI [53]: > 100 µM | TGI [54]: > 100 µM | TGI [55]: > 100 µM | TGI [56]: > 100 µM

N#CNC(=NCc1ccccc1)NCc1ccccc1
TGI [1]: > 70.7 µM | TGI [2]: > 100 µM | TGI [3]: > 100 µM | TGI [4]: > 100 µM | TGI [5]: > 53.4 µM | TGI [57]: 69 µM | TGI [6]: > 100 µM | TGI [7]: > 100 µM | TGI [8]: > 100 µM | TGI [9]: > 100 µM | TGI [10]: > 100 µM | TGI [11]: > 96.3 µM | TGI [12]: > 100 µM | TGI [13]: > 100 µM | TGI [14]: > 100 µM | TGI [15]: > 100 µM | TGI [16]: > 55.8 µM | TGI [17]: > 100 µM | TGI [18]: > 100 µM | TGI [19]: > 56 µM | TGI [20]: > 100 µM | TGI [21]: > 100 µM | TGI [22]: > 57.3 µM | TGI [23]: > 100 µM | TGI [24]: > 100 µM | TGI [25]: > 100 µM | TGI [26]: > 100 µM | TGI [27]: > 100 µM | TGI [28]: > 100 µM | TGI [29]: > 89 µM | TGI [30]: > 100 µM | TGI [31]: > 100 µM | TGI [32]: > 100 µM | TGI [33]: > 100 µM | TGI [34]: > 100 µM | TGI [35]: > 62.7 µM | TGI [36]: > 100 µM | TGI [37]: > 100 µM | TGI [38]: 33.6 µM | TGI [39]: > 100 µM | TGI [40]: > 100 µM | TGI [58]: > 100 µM | TGI [41]: > 100 µM | TGI [42]: > 71 µM | TGI [43]: 48.6 µM | TGI [44]: > 100 µM | TGI [45]: > 100 µM | TGI [46]: > 100 µM | TGI [47]: > 100 µM | TGI [48]: > 100 µM | TGI [49]: > 100 µM | TGI [50]: > 100 µM | TGI [51]: > 100 µM | TGI [52]: > 100 µM | TGI [53]: > 100 µM | TGI [54]: > 100 µM | TGI [55]: > 100 µM | TGI [56]: > 100 µM

COC(=O)C(/C(=N/NC(N)=O)C(=O)Nc1c(C)cccc1C(C)(C)C)c1nc2ccc(Cl)cc2[nH]c1=O (stereo unspecified)
TGI [1]: > 100 µM | TGI [2]: > 100 µM | TGI [3]: > 100 µM | TGI [4]: > 100 µM | TGI [5]: > 100 µM | TGI [57]: > 100 µM | TGI [6]: > 100 µM | TGI [7]: > 100 µM | TGI [8]: > 100 µM | TGI [9]: > 100 µM | TGI [10]: > 100 µM | TGI [11]: > 100 µM | TGI [12]: > 100 µM | TGI [13]: > 100 µM | TGI [14]: > 100 µM | TGI [15]: > 100 µM | TGI [16]: > 100 µM | TGI [17]: > 100 µM | TGI [18]: > 100 µM | TGI [19]: > 100 µM | TGI [20]: > 100 µM | TGI [21]: > 100 µM | TGI [23]: > 100 µM | TGI [24]: > 100 µM | TGI [25]: > 100 µM | TGI [26]: > 100 µM | TGI [27]: > 100 µM | TGI [28]: > 100 µM | TGI [29]: > 100 µM | TGI [30]: > 100 µM | TGI [31]: > 100 µM | TGI [32]: > 100 µM | TGI [33]: > 100 µM | TGI [34]: > 100 µM | TGI [35]: > 100 µM | TGI [36]: > 100 µM | TGI [37]: > 100 µM | TGI [38]: > 100 µM | TGI [39]: > 100 µM | TGI [40]: > 100 µM | TGI [58]: > 100 µM | TGI [41]: > 100 µM | TGI [42]: > 100 µM | TGI [43]: > 100 µM | TGI [44]: > 100 µM | TGI [45]: > 100 µM | TGI [46]: > 100 µM | TGI [47]: > 100 µM | TGI [48]: > 100 µM | TGI [49]: > 100 µM | TGI [50]: > 100 µM | TGI [51]: > 100 µM | TGI [52]: > 100 µM | TGI [53]: > 100 µM | TGI [54]: > 100 µM | TGI [55]: > 100 µM | TGI [56]: > 100 µM
